Legend:
[1] = test system: AML12 Cell Line; assay: Transfection of AML12 Cell Line with FLuc mRNA LNPs (ONE-Glo EX luciferase signal); assay type: cell-based; details: 200 ng Fluc mRNA-LNP, 24 hours
Method: (§1) mRNA encapsulated lipid nanoparticles (mRNA LNPs) were formulated using microfluidic mixing with a PNI Ignite instrument. Briefly, lipids (ionizable: structural: helper: PEG) were dissolved in ethanol and mixed with and aqueous solution of mRNA. These mRNA-loaded dispersions were then neutralized via a buffer exchange with a pre-determined buffer overnight. Afterwards, formed LNPs were concentrated with Amicon filter centrifugation, filtered, concentration of mRNA determined through a ribogreen assay, and frozen at −80° C. until use.
(§2) Cell lines were grown to confluence in T75 flasks using complete media of DMEM-F12 for AML12 and DMEM for both B16F10 and MC38.K. Cells were plated in a white 96 flat-well plate (AML12=20,000 cells/well, B16F10 and MC38.K=5,000 cells/well) with their respected media. Lipid nanoparticles were first diluted to 50 μg/ml using Opti-MEM and pre-incubated with mouse serum for 30 minutes to give an LNP concentration of 8 μg/ml. Cell media was replaced with Opti-MEM and LNPs were added to cells (200 ng of mRNA-LNP), placed back in the incubator, and allowed to transfect for 24 hours. Afterwards, 100 μl of Promega's ONE-Glo™ EX Luciferase Assay System or Promega's CellTiter-Glo® Luminescent Cell Viability Assay was added and mixed in their respective wells, followed by recording luminescence signals on a Thermo Scientific Varioskan LUX multimode microplate reader. The results are shown in FIG. 1, FIG. 2, FIG. 3, FIG. 4, FIG. 5, FIG. 6, FIG. 10, FIG. 11, and FIG. 21.

[2] = test system: B16F10 Cell Line; assay: Transfection of B16F10 Cell Line with FLuc mRNA LNPs (ONE-Glo EX luciferase signal); assay type: cell-based; details: 200 ng Fluc mRNA-LNP, 24 hours
Method: as §1, §2

[3] = test system: MC38.K Cell Line; assay: Transfection of MC38.K Cell Line with FLuc mRNA LNPs (ONE-Glo EX luciferase signal); assay type: cell-based; details: 200 ng Fluc mRNA-LNP, 24 hours; for Total Luciferin Signal (RLU) In Vitro - MC38.K: Table 4
Method: as §1, §2

[4] = test system: Liver; assay: Ex-vivo luminescence signal from liver after IV Fluc mRNA LNPs in CD1 mice (IVIS); details: tail vein 1.0 mg/kg Day 0 and Day 2, imaging 18 hours after second dose, Table 4

Row | Compound | Total Luciferin Signal (RLU) In Vitro - AML12 ([1]; Table 4) | Total Luciferin Signal (RLU) In Vitro - B16F10 ([2]; Table 4) | Total Luciferin Signal (RLU) In Vitro - MC38.K [3] | Total Liver Tissue Luciferin Signal (Photons/s) Ex-vivo - CD1 [4] | Total Luciferin Signal (RLU) In Vitro - AML12 ([1]; Table 5) | Total Luciferin Signal (RLU) In Vitro - B16F10 ([2]; Table 5) | Total Luciferin Signal (RLU) In Vitro-MC38 ([3]; Table 5)
1 | CCCCCCCCC(CCCCCCCC)OC(=O)CCCCCCCN(CCO)CCCCCC(=O)OCCCCCCCCC(C)C [Compound 1] | 1.96E+06 RLU | 6.92E+06 RLU | 7.83E+06 RLU | 9.00E+09 Photons/s | – | – | –
2 | CCCCCCCCC(CCCCCCCC)OC(=O)CCCCCCCN(CCO)CCCCCCCC(=O)OCCCCCCCCC(C)C [Compound 2] | 4.76E+06 RLU | 5.94E+06 RLU | 4.24E+06 RLU | 6.20E+09 Photons/s | – | – | –
3 | CCCCCCCCC(CCCCCCCC)OC(=O)CCCCCCCN(CCCCCCCC(=O)OCCCCCCCCC(C)C)CCOC(=O)CCCN(C)C [Compound 3] | 3.82E+06 RLU | 4.58E+06 RLU | 2.99E+06 RLU | 8.57E+07 Photons/s | – | – | –
4 | CCCCCCCCCCCOC(=O)CCCCCN(CCO)CCCCCCCC(=O)OC(CCCCCCCC)CCCCCC(C)C (stereo not drawn) [Compound 18] | 2.99E+06 RLU | 2.65E+06 RLU | – | 4.74E+09 Photons/s | – | – | –
5 | CCCCCCCCCCCCN(CCO)CCCCCCCC(=O)OC(CCCCCCCC)CCCCCCCC [Compound 41] | 3.63E+06 RLU | 2.52E+06 RLU | – | 8.12E+09 Photons/s | – | – | –
6 | CCCCCCCCCOC(=O)C(C)CCCCCCN(CCCCO)CCCCCCCC(=O)OCC(CCCCCC)CCCCCCCCF (stereo not drawn) [Compound 85, nonyl 8-((8-((10-fluoro-2-hexyldecyl)oxy)-8-oxooctyl)(4-hydroxybutyl)amino)-2-methyloctanoate] | 7.47E+06 RLU | 1.03E+07 RLU | 6.32E+07 RLU | – | – | – | –
7 | CCCCCCC(CCCCCCCCF)COC(=O)CCCCCCCN(CCCCO)CCCCCCC(C)C(=O)OCCCCCCCCC(C)C (stereo not drawn) [Compound 86, 9-methyldecyl 8-((8-((10-fluoro-2-hexyldecyl)oxy)-8-oxooctyl)(4-hydroxybutyl)amino)-2-methyloctanoate] | 3.99E+06 RLU | 7.58E+06 RLU | 3.80E+07 RLU | – | – | – | –
8 | CCCCCCCCC(CCCCCCCCF)C(=O)OCCCCCCCN(CCO)CCCCCCCOC(=O)C(C)CCCCCCCC(C)C (stereo not drawn) [Compound 87, 7-((7-((10-fluoro-2-octyldecanoyl)oxy)heptyl)(2-hydroxyethyl)amino)heptyl 2,10-dimethylundecanoate] | 1.52E+06 RLU | 3.16E+06 RLU | 6.61E+06 RLU | – | – | – | –
9 | CCCCC(CCCCCCF)C(=O)OCCCCCCCCN(CCCCO)CCCCCCC(C)C(=O)OCCCCCCCCC(C)C (stereo not drawn) [Compound 88, 8-((4-hydroxybutyl)(7-methyl-8-((9-methyldecyl)oxy)-8-oxooctyl)amino)octyl 2-butyl-8-fluorooctanoate] | 3.65E+05 RLU | 9.41E+05 RLU | 1.24E+07 RLU | – | – | – | –
10 | CCCCCCCCC(CCCCCCCCF)C(=O)OCCCCCCCN(CCCCO)CCCCCCCOC(=O)C(C)CCCCCCCC(C)C (stereo not drawn) [Compound 89, 7-((7-((10-fluoro-2-octyldecanoyl)oxy)heptyl)(4-hydroxybutyl)amino)heptyl 2,10-dimethylundecanoate] | 7.66E+06 RLU | 9.61E+06 RLU | 3.88E+07 RLU | – | – | – | –
11 | CCCCCCCC/C=C\CCCCCCC1CN(CCO)CC(CCCCCC(=O)OC(CCCCCCCC)CCCCCCC(C)C)O1 (stereo not drawn) [Compound 98, 2-methylheptadecan-9-yl (Z)-6-(6-(hexadec-7-en-1-yl)-4-(2-hydroxyethyl)morpholin-2-yl)hexanoate] | – | – | – | – | 4.38E+04 RLU | 1.27E+05 RLU | 7.95E+04 RLU

Reference: US20260116845A1, “LIPIDS AND COMPOSITIONS THEREOF” (Kernal Biologics, Inc., priority 2023, published 2026)
